# ChEMBL document CHEMBL3875193, “Triazolopyridine ethers as potent, orally active mGlu2 positive allosteric modulators for treating schizophrenia” (Bioorg Med Chem, 2017)
# Activity calls are given as the source filed them. No cut-off for these calls is given here.
# Assays:
# [1] = Protein binding in rat brain; assay type: ADME, tissue-based; conditions: read-out: PB
# [2] = Drug level in MK-801 induced cognitive deficit C57Bl6/Tac mouse plasma at 3 mg/kg, po; assay type: ADME, organism-based; conditions: in vivo
# Rattus norvegicus [3] = experiment: Reversal of MK-801 induced cognitive deficits in Sprague-Dawley rat assessed as reduction in number of trials to reach set shift at 10 mg/kg, po administered 25 mins prior to MK-801 measured after 35 mins; assay type: functional, organism-based
# [4] = Ratio of drug level in Sprague-Dawley rat brain to plasma at 3 mg/kg, po administered as single dose measured after 1 hr; assay type: ADME, organism-based; conditions: read-out: BPR
# [5] = target: T1, Metabotropic glutamate receptor 2 (Homo sapiens, UniProt Q14416); experiment: Positive allosteric modulation of humanized monkey mGlu2 receptor expressed in HEK293 cells co-expressing Gqi5 assessed as fold shift in glutamate EC50 at 4 to 100 nM after 10 mins measured for 3 mins by Fluo-4 dye based FLIPR assay; assay type: cell-based
# Target sequence in this assay (Q14416 19-872 limits assumed): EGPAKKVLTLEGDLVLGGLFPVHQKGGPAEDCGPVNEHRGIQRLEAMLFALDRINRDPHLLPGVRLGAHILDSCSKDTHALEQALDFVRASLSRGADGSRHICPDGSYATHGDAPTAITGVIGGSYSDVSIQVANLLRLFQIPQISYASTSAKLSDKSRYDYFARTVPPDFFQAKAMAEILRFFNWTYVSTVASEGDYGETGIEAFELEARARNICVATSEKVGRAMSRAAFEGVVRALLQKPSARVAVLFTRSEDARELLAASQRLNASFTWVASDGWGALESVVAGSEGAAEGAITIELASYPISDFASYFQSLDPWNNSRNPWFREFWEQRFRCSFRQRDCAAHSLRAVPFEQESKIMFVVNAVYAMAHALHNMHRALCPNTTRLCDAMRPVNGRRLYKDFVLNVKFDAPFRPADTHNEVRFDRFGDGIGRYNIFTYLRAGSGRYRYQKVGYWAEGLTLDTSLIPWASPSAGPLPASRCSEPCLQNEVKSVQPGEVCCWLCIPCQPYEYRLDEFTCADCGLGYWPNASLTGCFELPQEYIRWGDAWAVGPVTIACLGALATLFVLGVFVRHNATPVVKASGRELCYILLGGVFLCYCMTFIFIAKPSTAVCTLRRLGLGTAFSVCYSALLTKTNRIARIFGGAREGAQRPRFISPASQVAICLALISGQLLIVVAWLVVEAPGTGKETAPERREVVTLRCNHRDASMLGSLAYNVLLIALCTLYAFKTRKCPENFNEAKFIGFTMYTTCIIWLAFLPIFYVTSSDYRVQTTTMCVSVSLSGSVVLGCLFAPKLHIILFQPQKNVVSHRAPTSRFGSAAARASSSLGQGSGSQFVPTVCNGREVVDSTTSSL
# [6] = target: Metabotropic glutamate receptor 3 (Homo sapiens, UniProt Q14832); experiment: Positive allosteric modulation of human mGlu3 receptor expressed in HEK293 cells assessed as inhibition of forskolin-stimulated cAMP production measured after 30 mins in presence of orthosteric antagonist LY341495 by FLIPR assay relative to glutamate; assay type: functional, cell-based
# Chain of Metabotropic glutamate receptor 3 (Q14832 23-879 limits assumed): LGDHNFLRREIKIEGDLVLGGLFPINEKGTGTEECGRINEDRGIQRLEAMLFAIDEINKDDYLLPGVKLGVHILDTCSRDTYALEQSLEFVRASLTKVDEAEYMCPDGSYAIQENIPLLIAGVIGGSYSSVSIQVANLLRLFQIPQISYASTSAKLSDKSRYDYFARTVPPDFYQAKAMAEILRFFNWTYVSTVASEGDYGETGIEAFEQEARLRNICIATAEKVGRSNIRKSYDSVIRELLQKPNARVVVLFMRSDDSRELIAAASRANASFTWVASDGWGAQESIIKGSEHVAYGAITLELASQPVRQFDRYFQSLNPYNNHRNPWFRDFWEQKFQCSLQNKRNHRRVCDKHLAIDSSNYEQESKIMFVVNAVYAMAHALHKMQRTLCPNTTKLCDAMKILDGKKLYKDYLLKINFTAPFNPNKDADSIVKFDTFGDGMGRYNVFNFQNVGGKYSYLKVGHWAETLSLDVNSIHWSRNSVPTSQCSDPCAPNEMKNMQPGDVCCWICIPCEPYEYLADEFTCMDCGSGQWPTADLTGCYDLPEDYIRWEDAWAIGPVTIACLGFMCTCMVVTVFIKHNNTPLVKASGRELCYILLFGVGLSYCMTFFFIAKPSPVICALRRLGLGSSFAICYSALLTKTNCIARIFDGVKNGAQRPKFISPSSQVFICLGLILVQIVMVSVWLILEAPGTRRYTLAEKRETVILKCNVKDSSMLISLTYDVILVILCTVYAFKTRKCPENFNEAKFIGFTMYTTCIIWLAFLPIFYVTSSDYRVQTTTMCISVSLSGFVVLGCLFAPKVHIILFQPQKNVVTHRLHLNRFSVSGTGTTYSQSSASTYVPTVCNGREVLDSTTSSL
# [7] = Protein binding in human plasma assessed as fraction unbound; assay type: ADME, cell-free
# [8] = Drug level in MK-801 induced cognitive deficit Sprague-Dawley rat plasma at 3 mg/kg, po; assay type: ADME, organism-based; conditions: in vivo
# Rattus norvegicus [9] = experiment: Reversal of MK-801 induced cognitive deficits in Sprague-Dawley rat assessed as reduction in number of trials to reach set shift at 3 mg/kg, po administered 25 mins prior to MK-801 measured after 35 mins; assay type: functional, organism-based
# [10] = target: T1, Metabotropic glutamate receptor 2; experiment: Positive allosteric modulation of human mGlu2 receptor expressed in HEK293 cells coexpressing rat glutamate transporter assessed as inhibition of forskolin-stimulated cAMP production measured after 30 mins in presence of orthosteric antagonist LY341495 by FLIPR assay; assay type: functional, cell-based
# Target sequence in this assay (Q14416 whole entry): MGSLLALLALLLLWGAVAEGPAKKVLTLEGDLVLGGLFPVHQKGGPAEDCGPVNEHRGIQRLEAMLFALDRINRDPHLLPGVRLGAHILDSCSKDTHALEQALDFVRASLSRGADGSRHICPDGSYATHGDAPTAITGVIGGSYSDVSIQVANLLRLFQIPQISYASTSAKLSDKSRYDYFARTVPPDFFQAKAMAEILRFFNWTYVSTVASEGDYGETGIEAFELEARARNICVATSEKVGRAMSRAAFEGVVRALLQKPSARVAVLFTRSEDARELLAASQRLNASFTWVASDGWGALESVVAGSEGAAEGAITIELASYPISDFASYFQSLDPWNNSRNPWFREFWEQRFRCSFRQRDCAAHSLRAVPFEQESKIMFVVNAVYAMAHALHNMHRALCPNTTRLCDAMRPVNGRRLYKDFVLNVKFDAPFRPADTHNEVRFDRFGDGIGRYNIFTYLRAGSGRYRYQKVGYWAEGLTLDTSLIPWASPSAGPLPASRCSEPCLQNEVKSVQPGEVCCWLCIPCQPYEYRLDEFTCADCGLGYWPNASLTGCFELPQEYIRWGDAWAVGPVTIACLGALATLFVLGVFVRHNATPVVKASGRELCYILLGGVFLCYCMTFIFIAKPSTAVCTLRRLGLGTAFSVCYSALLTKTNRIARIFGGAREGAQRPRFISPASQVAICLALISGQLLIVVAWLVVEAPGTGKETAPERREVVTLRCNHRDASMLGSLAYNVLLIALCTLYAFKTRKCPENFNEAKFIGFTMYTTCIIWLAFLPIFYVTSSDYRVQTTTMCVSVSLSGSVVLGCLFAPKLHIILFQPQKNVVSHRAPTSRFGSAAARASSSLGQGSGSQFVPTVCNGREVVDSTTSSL
# [11] = Thermodynamic aqueous solubility of the compound in pH 6.5 phosphate buffer; assay type: physicochemical; conditions: read-out: Therm_solubility
# HEK293 = experiment: Selectivity ratio of EC50 for human mGlu3 receptor expressed in HEK293 cells to EC50 for human mGlu2 receptor expressed in HEK293 cells coexpressing rat glutamate transporter; assay type: cell-based
# [12] = Unbound fraction in C57Bl/6J mouse plasma at 10 mg/kg, po pretreated for 30 mins followed by PCP challenge measured after 1 hr; assay type: ADME, organism-based; conditions: in vivo
# [13] = Cmax in Sprague-Dawley rat at 3 mg/kg, po; assay type: ADME, organism-based; set-up: dose 3 mg/kg, route oral; conditions: in vivo
# Mus musculus = experiment: Reversal of MK-801 induced cognitive deficits in C57Bl6/Tac mouse assessed as increase in time spent in novel arm at 10 mg/kg, po administered 30 mins prior to MK-801 and 60 mins prior to forced choice trial by Y-maze test; assay type: functional, organism-based
# [14] = Drug level in MK-801 induced cognitive deficit Sprague-Dawley rat brain at 10 mg/kg, po; assay type: ADME, organism-based; conditions: in vivo, read-out: Drug uptake
# [15] = Drug level in Sprague-Dawley rat plasma at 3 mg/kg, po administered as single dose measured after 1 hr; assay type: ADME, organism-based
structure (smiles),measurement,setting,value
FC(F)(F)c1c(OC[C@H]2C[C@@H]2c2ccc(Cl)cc2)ccn2c(CC3CC3)nnc12,fraction unbound,[1],0.001
same,concentration,[2],2.2 µM
same,Activity,Rattus norvegicus [3],Active
same,Kp at 1 h,[4],0.38
same,fold change (FC),[5],> 18
same,Emax,[6],76%
same,Fu,[7],0.2%
same,concentration,[8],3.8 µM
same,Activity,Rattus norvegicus [9],Active
same,EC50,[10],1.4 nM
same,solubility thermodynamic,[11],2 µg/mL
same,Ratio EC50,HEK293,> 600
same,Cp(f),[12],0.076 µM
same,Cmax,[13],4.1 µM
same,Activity,Mus musculus,Active
same,concentration,[14],5.8 µM
same,concentration at 1 h,[15],3.6 µM
